Molecules are shown by their SMILES. Where a name gives a salt, the structure may show the parent alone.

CRBN-DDB1, sequence (Q96SW2 whole entry): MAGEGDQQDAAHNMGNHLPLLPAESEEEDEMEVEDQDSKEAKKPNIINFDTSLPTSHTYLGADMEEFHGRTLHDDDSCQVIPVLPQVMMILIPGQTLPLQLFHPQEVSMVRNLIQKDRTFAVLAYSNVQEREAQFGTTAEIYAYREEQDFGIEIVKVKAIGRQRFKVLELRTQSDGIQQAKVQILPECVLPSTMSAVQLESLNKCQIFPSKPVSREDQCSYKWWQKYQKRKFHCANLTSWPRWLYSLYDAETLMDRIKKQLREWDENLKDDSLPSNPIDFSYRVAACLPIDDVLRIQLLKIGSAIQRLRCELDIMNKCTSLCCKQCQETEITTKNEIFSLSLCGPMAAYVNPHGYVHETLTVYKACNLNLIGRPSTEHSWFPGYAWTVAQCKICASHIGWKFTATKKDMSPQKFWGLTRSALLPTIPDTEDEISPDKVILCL
CRBN-DDB1, sequence (Q16531 whole entry partner): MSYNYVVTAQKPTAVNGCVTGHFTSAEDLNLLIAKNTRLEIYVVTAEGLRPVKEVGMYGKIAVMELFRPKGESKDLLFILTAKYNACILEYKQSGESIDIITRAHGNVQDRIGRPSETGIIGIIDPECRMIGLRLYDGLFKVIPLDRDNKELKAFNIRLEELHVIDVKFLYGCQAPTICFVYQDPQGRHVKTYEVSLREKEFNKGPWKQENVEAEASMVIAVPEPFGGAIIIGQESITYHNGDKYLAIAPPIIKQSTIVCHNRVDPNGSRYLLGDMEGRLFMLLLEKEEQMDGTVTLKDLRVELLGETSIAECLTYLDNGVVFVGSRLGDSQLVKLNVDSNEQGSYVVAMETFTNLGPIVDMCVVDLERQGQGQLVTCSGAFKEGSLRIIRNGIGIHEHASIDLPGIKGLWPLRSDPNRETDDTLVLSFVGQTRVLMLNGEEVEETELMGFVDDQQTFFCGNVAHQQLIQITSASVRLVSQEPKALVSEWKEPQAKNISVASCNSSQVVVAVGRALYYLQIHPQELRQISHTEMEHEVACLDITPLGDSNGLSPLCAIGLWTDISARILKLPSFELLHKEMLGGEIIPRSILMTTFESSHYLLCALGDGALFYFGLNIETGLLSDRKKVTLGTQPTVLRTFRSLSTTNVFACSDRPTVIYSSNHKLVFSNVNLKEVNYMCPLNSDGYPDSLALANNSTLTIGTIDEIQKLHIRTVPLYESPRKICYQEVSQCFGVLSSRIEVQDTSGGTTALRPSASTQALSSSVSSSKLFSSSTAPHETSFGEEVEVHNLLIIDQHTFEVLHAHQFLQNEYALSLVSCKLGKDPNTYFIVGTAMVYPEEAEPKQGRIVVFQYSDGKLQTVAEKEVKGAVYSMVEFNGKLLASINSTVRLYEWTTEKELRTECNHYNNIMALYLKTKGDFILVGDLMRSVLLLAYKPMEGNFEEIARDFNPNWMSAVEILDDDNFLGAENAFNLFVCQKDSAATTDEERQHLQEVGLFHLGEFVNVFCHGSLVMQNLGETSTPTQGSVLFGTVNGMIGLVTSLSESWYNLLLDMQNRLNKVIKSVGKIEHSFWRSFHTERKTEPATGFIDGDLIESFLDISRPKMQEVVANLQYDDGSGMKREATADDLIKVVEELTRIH

The assay concerns the target CRBN-DDB1 (Homo sapiens, UniProt Q96SW2). The assay can be described thus: CRBN-DDB1 fluorescence polarization (FP) binding assay. The note with it: displacement of Thalidomide-Alexa Fluor or Pomalidomide-fluorescein probe; 400 nM CRBN-DDB1, 5 nM probe, 0.05% pluronic acid, 60 min room temperature; read-out: FP binding to CRBN_DDB1.3 0.05% PA. Here is the method: The measurement of the ability of representative Degrons to bind to CRBN-DDB1 was carried out using an established sensitive and quantitative in vitro fluorescence polarization (FP) based binding assay. (See, I. J. Enyedy et al, J. Med. Chem., 44: […] [2001]). Degrons were dispensed from serially diluted DMSO stock into black 384-well compatible fluorescence polarization plates using an Echo acoustic dispenser. Binding to CRBN-DDB1 was measured by displacement of either a (-)-Thalidomide- Alexa Fluor® or Pomalidomide-fluorescein conjugated probe dye. A 20 μL mixture containing 400 nM CRBN-DDB1 and 5 nM probe dye in 50 mM Hepes, pH 7.4, 200mM NaCl, 1% DMSO and 0.05% pluronic acid-127 acid was added to wells containing Degron and incubated at room temperature for 60 min. Matching control wells excluding CRBN-DDB1 were used to correct for background fluorescence. Plates were read on an Envision plate reader with appropriate FP filter sets. The corrected S (perpendicular) and P (parallel) values were used to calculate fluorescence polarization (FP) with the following equation: FP =1000*(S-G*P)/(S+G*P). The fractional amount of bound probe (FB) to CRBN-DDB1 as a function of Degron concentration was fitted according to Wang; FEBS Letters 360, (1995), 111-114 to obtain fits for parameter offsets and binding constant (KA) of Degron.
(In general: Fluorescence polarisation rises when a labelled molecule tumbles more slowly, as on binding a larger partner.)
Regarding `O=C1CCN(c2cnn(C3CCNCC3)c2)C(=O)N1` [Compound 8, 1-[1-(4-piperidyl)pyrazol-4-yl]hexahydropyrimidine-2,4-dione], the Kd is less than 100 µM.

Turning to `O=C1CCN(c2ccc(N3CCNCC3)cc2)C(=O)N1` [Compound 10, 1-(4-Piperazin-1-yl-phenyl)-dihydro-pyrimidine-2,4-dione hydrochloride], the Kd is less than 100 µM. Take `O=C(O)CCc1ccc(N2CCC(N3CCC(=O)NC3=O)CC2)cc1` [Compound 6, 3-[4-[4-(2,4-dioxohexahydropyrimidin-1-yl)-1-piperidyl]phenyl]propanoic acid]: the Kd is less than 50 µM. The result for `O=C1CCN(Cc2ccc(C3CCNCC3)cc2)C(=O)N1` [Compound 14, 1-(4-(Piperidin-4-yl)benzyl)dihydropyrimidine-2,4(1H,311)-dione TFA] reads less than 30 µM. Take `O=C1CCN(c2cccc(C3CCNCC3)c2)C(=O)N1` [Compound 12, 1-(3-Piperidin-4-yl-phenyl)-dihydro-pyrimidine-2,4-dione hydrochloride]: the Kd is less than 100 µM. `Cn1nc(N2CCC(=O)NC2=O)c2ccc(Br)cc21` [Compound 2, 1-(6-Bromo-1-methyl-1H-indazol-3-yl)dihydropyrimidine-2,4(1H,3H)-dione]: the Kd is less than 50 µM. With `O=C1CCN(c2ccc(C3CCNCC3)cc2)C(=O)N1` [Compound 11, 1-[4-(4-piperidyl)phenyl]hexahydropyrimidine-2,4-dione; hydrochloride] the figure was less than 100 µM. For `O=C1CCN(c2ccc(C3CCNCC3)[nH]c2=O)C(=O)N1` [Compound 7, 1-(2-Oxo-6-(piperidin-4-yl)-1,2-dihydropyridin-3-yl)dihydropyrimidine-2,4(1H,3H)-dione], the Kd is less than 30 µM. With `O=C1CCN(c2ccc(N3CCNCC3)nc2)C(=O)N1` [Compound 1, 1-(6-(Piperazin-1-yl)pyridin-3-yl)dihydropyrimidine-2,4(1H,3H)-dione Hydrochloride] the figure was less than 30 µM; with `O=C1CCN(c2ccc(C3CCNCC3)c(=O)[nH]2)C(=O)N1` [Compound 5, 1-(6-Oxo-5-(piperidin-4-yl)-1,6-dihydropyridin-2-yl)dihydropyrimidine-2,4(1H,3H)-dione Hydrochloride], less than 100 µM.

For the origin of these results see patent US12454521B2, “Targeted protein degradation” (C4 Therapeutics, Inc., priority 2018, dated 2025).
